In patent US20140065610A1, “METHOD FOR PREDICTING CLINICAL BENEFIT IN THE TREATMENT OF NEURODEVELOPMENTAL, NEUROLOGICAL OR NEUROPSYCHIATRIC DISORDERS” (priority 2011, published 2014):

Legend:
Format in all cases: in vivo, human
[1] = test system: adults with schizophrenia with predominantly negative symptoms; assay: Phase II GRI schizophrenia trial: change of PANSS negative symptom factor score from baseline
Description: FIG. 2: Change of PANSS negative symptom factor score from baseline in all patients (FIG. 2(a)) and in CFHR1-low patients (FIG. 2(b)) and CFHR1-high patients (FIG. 2(c)) using natural cutoff for CFHR1. Patients with serum concentration ≦28 ug/ml were classified as CFHR1-low and patients with serum concentration >28 ug/ml were classified as CFHR1-high. Estimates of expected response and standard error bars from MMRM analysis. Dash-dot line and circle Placebo; solid line and squares 10 mg GRI; solid line and upward-pointing triangles 30 mg GRI; dashed line and diamonds 60 mg GRI.
(§1) A Phase II study was performed in adults with schizophrenia with predominantly negative symptoms. The individuals were clinically stable and on stable treatment with second generation antipsychotics. The study was conducted at multiple sites in Brazil, France, Germany, Hungary, Japan, Mexico, Poland, Russia, and the US according to ICH Guidelines for Good Clinical Practice (ClinicalTrials.gov Identifier: NCT00616798). The study protocol was approved by the health authorities of each country and the respective ethic committees of each site. All 323 patients had provided written consent to participate in the study and 224 patients had consented to the collection and use of serum samples for exploratory biomarker analysis. After a screening and a 4-week run-in period, patients were randomized to double-blind adjunctive treatment with placebo, 10 mg, 30 mg, or 60 mg of GRI given once a day for a duration of 8 weeks, followed by 4 week follow-up period. Similar percentages of patients in the four treatment arms completed the study.
(§2) Patients were assessed at screening, week −2, baseline, weeks 1, 2, 4, 6, 8, 10 and 12. Assessments included the PANSS, Clinical Global Impression—Severity of Illness (CGI-S) and Clinical Global Impression-Global Improvement (CGI-I) for overall psychopathology 56, CGI-S and CGI-I of Negative Symptoms (CGI-S-N, CGI-I-N) for assessment of negative symptoms only 57, and standard examinations of extrapyramidal symptoms (BAS58, SAS59, AIMS60). The primary efficacy variable assessing effects on negative symptoms was the change from baseline in the PANSS negative symptom factor score 64. Secondary efficacy variables were i) proportion of patients showing a clinical response in negative symptom defined as a 20% change from baseline in the PANSS negative symptom factor score and ii) CGI-I-N. Additional analyses included change in PANSS total score, remaining PANSS factor scores 64 CGI-S and CGI-I.
Results for the overall patient cohort are shown in the top panel, for the CFHR1-low patients in the middle panel and for the CFHR1-high patients in the lower panel. […]

[2] = test system: adults with schizophrenia with predominantly negative symptoms; assay: Phase II GRI schizophrenia trial: PANSS negative symptom factor score responder rate; conditions: after 8 weeks
Description: FIG. 3: Response rates of dichotomized PANSS negative symptom factor score (response defined as ≧20% drop from baseline) at week 8. Shaded background bars are response rates in overall per protocol population. Solid grey bars are response rates in CFHR1 stratified subpopulations using natural cut-off for CFHR1.
as §1, §2
For the 10 mg arm the response rate in the CFHR1-high group was 88% compared to 69% in the non-stratified group, and for the 30 mg arm the response rate in the CFHR1-high group was 78% compared to 66% in the non-stratified group.

[3] = test system: adults with schizophrenia with predominantly negative symptoms; assay: Phase II GRI schizophrenia trial: CGI-I negative symptoms responder rate
Source text: FIG. 4: Response rates of dichotomized CGI-I negative symptoms rating score (response defined as “much improved” or “very much improved”) at week 8. Shaded background bars are response rates in overall per protocol population. Solid grey bars are response rates in CFHR1 stratified subpopulations using natural cut-off for CFHR1.
FIG. 6: Response rates of dichotomized CGI-I negative symptoms rating score (response defined as “much improved” or “very much improved”) at week 8. Shaded background bars are response rates in overall per protocol population. Solid grey bars are response rates in CFHR1 stratified subpopulations using CFHR1/CFH ratio, with L (low) corresponding to CFHR1/CFH ratio below 0.01, M (medium) corresponding to CFHR1/CFH ratio above 0.01 and below 0.08 and with H (high) corresponding to CFHR1/CFH ratio above 0.08.
FIG. 9: Response rates of dichotomized CGI-I negative symptoms rating score (response defined as “much improved” or “very much improved”) at week 8. Shaded background bars are response rates in overall per protocol population from those who had consented for DNA sample. Solid grey bars are response rates in CFHR1 stratified subpopulations using genetic status of CFHR1 allele.
as §1, §2
As a secondary endpoint in the clinical trial the Clinical Global Impression (CGI) improvement of negative symptoms between baseline and week 8 evaluation was used. This outcome measure was treated as a binary variable. […] The analysis was performed on the combined placebo, 10 mg and 30 mg biomarker population using the per protocol (PP) population. Explanatory variables for this analysis are the baseline measurements of all measured proteins, the treatment (placebo or pooled 10 mg/30 mg treatment) and the treatment-protein interaction. A logistic regression model was used as predictor.
For the 10 mg arm the response rate in the CFHR1-high group was 69% compared to 39% in the non-stratified group, and for the 30 mg arm the response rate in the CFHR1-high group was 67% compared to 45% in the non-stratified group. […]

[4] = 10 mg arm, non-stratified group
[5] = 30 mg arm, non-stratified group

C[C@H](Oc1ccc(S(C)(=O)=O)cc1C(=O)N1CCN(c2ncc(C(F)(F)F)cc2F)CC1)C(F)(F)F [GRI, [4-(3-fluoro-5-trifluoromethyl-pyridin-2-yl)-piperazin-1-yl]-[5-methanesulfonyl-2-((S)-2,2,2-trifluoro-1-methyl-ethoxy)-phenyl]-methanone]
effect size, change in PANSS negative symptom factor score from baseline ([1]; 10 mg arm, CFHR1-high group (serum CFHR1 >28 ug/ml), 8 weeks, vs placebo): −1.01 | effect size, change in PANSS negative symptom factor score from baseline [1, 4]: −0.42 | effect size, change in PANSS negative symptom factor score from baseline ([1]; 30 mg arm, CFHR1-high group (serum CFHR1 >28 ug/ml)): −0.76 | effect size, change in PANSS negative symptom factor score from baseline [1, 5]: −0.47 | response rate, PANSS negative symptom factor score (at least 20% decrease from baseline) ([2]; 10 mg arm, CFHR1-high group): 88% | response rate, PANSS negative symptom factor score (at least 20% decrease from baseline) [2, 4]: 69% | response rate, PANSS negative symptom factor score (at least 20% decrease from baseline) ([2]; 30 mg arm, CFHR1-high group): 78% | response rate, PANSS negative symptom factor score (at least 20% decrease from baseline) [2, 5]: 66% | response rate, CGI of negative symptoms ([3]; 10 mg arm, CFHR1+/+ group (genetic status)): 57% | response rate, CGI of negative symptoms ([3]; 10 mg arm, CFHR1-high group (natural cut-off 28 ug/ml), week 8): 69% | response rate, CGI of negative symptoms ([3]; 10 mg arm, H subgroup (CFHR1/CFH ratio above 0.08)): 69% | response rate, CGI of negative symptoms ([3]; 10 mg arm, L group (CFHR1/CFH ratio below 0.01), small sample size): 0% | response rate, CGI of negative symptoms ([3]; 10 mg arm, M subgroup (CFHR1/CFH ratio medium)): 19% | response rate, CGI of negative symptoms ([3]; 10 mg arm, non-stratified group of patients who consented for DNA sample): 39% | response rate, CGI of negative symptoms ([3]; 10 mg arm, non-stratified serum subgroup, week 8): 39% | response rate, CGI of negative symptoms ([3]; 30 mg arm, CFHR1+/+ group (genetic status)): 67% | response rate, CGI of negative symptoms ([3]; 30 mg arm, CFHR1-high group (natural cut-off 28 ug/ml), week 8): 67% | response rate, CGI of negative symptoms ([3]; 30 mg arm, H subgroup (CFHR1/CFH ratio above 0.08)): 67% | response rate, CGI of negative symptoms ([3]; 30 mg arm, L group (CFHR1/CFH ratio below 0.01), small sample size): 0% | response rate, CGI of negative symptoms ([3]; 30 mg arm, M subgroup (CFHR1/CFH ratio medium)): 28% | response rate, CGI of negative symptoms ([3]; 30 mg arm, non-stratified group of patients who consented for DNA sample): 46% | response rate, CGI of negative symptoms ([3]; 30 mg arm, non-stratified serum subgroup, week 8): 45% | response rate, CGI of negative symptoms ([3]; 60 mg arm, H subgroup (CFHR1/CFH ratio above 0.08)): 33% | response rate, CGI of negative symptoms ([3]; 60 mg arm, L group (CFHR1/CFH ratio below 0.01), small sample size): 100% | response rate, CGI of negative symptoms ([3]; 60 mg arm, M subgroup (CFHR1/CFH ratio medium)): 25% | response rate, CGI of negative symptoms ([3]; 60 mg arm, non-stratified serum subgroup, week 8): 34%
